Measurements taken from patent US9822136B2, “Chemical inhibitors of sebocyte function” (priority 2016, dated 2017).

Experiments:
[1] = tested on: sebocytes; assay: 3H-thymidine incorporation into sebocytes; type: cell-based, human; conditions: Homo sapiens, 3 h; uptake into sebocytes; NS = not significant
Protocol: (§1) The activities of 1-7 and 1-8 on an immortalized sebocyte cell line were examined in the laboratory of Prof Im Myung using methods previously described [Im et al. Epigallocatechin-3-gallate suppresses IGF-I-induced lipogenesis and cytokine expression in SZ95 sebocytes. J. Invest. Dermatol. 132, 2700-8 (2012)]. Proliferation of the sebocytes was measured using the MTT assay, by examination of micrographs of the cells in culture, and ^3H-thymidine incorporation. The effects of the test agents on lipogenesis were further studied by Oil Red O staining and analysis of the lipid composition of the cells. Studies were also conducted on signaling pathways for lipogenesis [PPAR and SREBP-1, Trivedi et al. Peroxisome proliferator-activated receptors increase human sebum production. J. Invest. Dermatol. 126, 2002-9 (2006)].
(§2) 1-7 and 1-8 are sensory cooling agents on the skin and activators [agonists] of the TRPM8 ion channel protein. […] The indicators used for direct comparison were sebocyte viability measured in the MTT assay and then the ^3H-thymidine incorporation assay.

[2] = tested on: sebocytes; assay: Sebocyte viability, MTT assay; type: cell-based, human
Protocol: as §1
The MTT assay is a colorimetric assay for cell viability. MTT [3-(4,5-dimethylthiazol-2-yl)-2-5-diphenyltetrazolium bromide], a yellow tetra-azole dye, is reduced to purple formazan in living cells by NADPH-dependent oxidoreductase enzymes. When the number of viable cells decreases the amount of enzymatic activity and purple color decreases and this can be measured with a spectrophotometer.
as §2

[3] = target: T1, cloned hTRPM8 channel (Homo sapiens, UniProt Q7Z2W7); assay: TRPM8 activation, FLIPR calcium assay in CHO cells; type: cell-based
T1 construct: host or cells: CHO cells
T1 sequence (Q7Z2W7 whole entry): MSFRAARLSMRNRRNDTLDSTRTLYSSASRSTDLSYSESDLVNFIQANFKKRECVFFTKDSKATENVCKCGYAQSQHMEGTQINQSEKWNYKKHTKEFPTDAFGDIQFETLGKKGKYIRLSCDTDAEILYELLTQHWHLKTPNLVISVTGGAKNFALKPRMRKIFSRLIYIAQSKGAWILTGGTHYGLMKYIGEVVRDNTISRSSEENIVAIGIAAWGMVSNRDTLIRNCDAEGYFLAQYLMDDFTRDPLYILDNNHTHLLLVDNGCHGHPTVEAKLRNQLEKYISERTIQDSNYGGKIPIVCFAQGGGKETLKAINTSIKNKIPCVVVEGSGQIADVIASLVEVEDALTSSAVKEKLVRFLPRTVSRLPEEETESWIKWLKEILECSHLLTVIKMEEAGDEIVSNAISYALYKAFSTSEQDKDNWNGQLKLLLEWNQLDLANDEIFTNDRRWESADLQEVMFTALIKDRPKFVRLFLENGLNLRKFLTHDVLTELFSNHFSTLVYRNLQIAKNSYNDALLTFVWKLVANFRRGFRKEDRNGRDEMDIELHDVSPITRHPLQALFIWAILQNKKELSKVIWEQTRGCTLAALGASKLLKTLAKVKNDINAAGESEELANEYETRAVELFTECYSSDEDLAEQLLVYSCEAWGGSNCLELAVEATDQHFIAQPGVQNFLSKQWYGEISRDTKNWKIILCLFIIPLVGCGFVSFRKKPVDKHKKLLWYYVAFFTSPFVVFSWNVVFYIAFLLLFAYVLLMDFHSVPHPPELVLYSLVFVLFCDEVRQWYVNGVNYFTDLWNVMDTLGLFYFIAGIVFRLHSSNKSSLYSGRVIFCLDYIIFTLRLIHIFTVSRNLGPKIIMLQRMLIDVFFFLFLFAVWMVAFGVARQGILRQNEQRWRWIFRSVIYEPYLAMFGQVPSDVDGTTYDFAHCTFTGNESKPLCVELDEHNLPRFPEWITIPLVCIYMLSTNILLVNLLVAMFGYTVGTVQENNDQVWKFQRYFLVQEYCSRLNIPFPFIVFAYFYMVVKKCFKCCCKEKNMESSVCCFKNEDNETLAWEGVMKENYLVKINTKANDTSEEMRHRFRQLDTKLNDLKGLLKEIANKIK
Protocol: The in vitro effects of test articles were first evaluated on cloned hTRPM8 channel. […] The test cells were Chinese Hamster Ovary (CHO) cells stably transfected with human TRPM8 cDNAs. […] Substances were evaluated at 8 concentrations (0.03 to 300 μM) with n=4 replicates per determination. For Fluorescence Imaging Plate Reader ([…]″) assay, cells were plated in 384-well black wall, flat clear-bottom microtiter plates (Type: BD Biocoat Poly-D-Lysine Multiwell Cell Culture Plate) at approximately 30,000 cells per well. Cells were incubated at 37° C. overnight to reach a near confluent monolayer appropriate for use in a fluorescence assay. The test procedure was to remove the growth media and to add 40 μL of HBPS containing Fluo-8 for 30 minutes at 37° C. 10 μL of test compound, vehicle, or control solutions in HBPS were then added to each well and read for 4 min using a Fluo-8 calcium kit and the […]″ instrument (Molecular Devices, Sunnyvale, California). […] J. Neurosci.
Concentration-response data were analysed via the FLIPR Control software that is supplied with the FLIPR System (MDS-AT) and fitted to a Hill equation of the following form: Response=Base+(Max−Base)/1+(xhalf/x)^rate, where: “Base” is the response at low concentrations of test compound; “Max” is the maximum response at high concentrations; “xhalf” is the EC50 (the concentration of test compound producing half-maximal activation); and “rate” is the Hill coefficient. Nonlinear least squares fits were made assuming a simple one-to-one binding model.

[4] = Foaming of aqueous solution on manual shaking; type: physicochemical; conditions: 10 mg/mL in distilled water
Protocol: The foaming seen in 7B is characteristic of a surface active agent or “surfactant” and is caused by an amphiphilic structure.
Plain water will not make bubbles because the water molecules are more strongly attracted to each other than to air. But when a surfactant is added, the surface tension of the liquid is reduced and it can wrap itself around air to form foam or soap bubbles. The foaming is enhanced when the liquid is shaken vigorously.

[5] = tested on: sebocytes; assay: IGF-1 stimulated lipogenesis in sebocytes (Oil Red O, thin-layer and gas chromatography of lipids); type: cell-based, human; conditions: IGF-1 stimulated sebocytes
Protocol: as §1, with “132, 2700-8 (2012)].” left out, “Dermatol.” for “Dermatol. 126, 2002-9 (2006)].”
J. Invest. Dermatol. […] Oil Red 0 [Sudan Red 5B] is a diazo dye used for staining neutral triglycerides and lipids on cells.

CCCCCCCCCCCP(=O)(C(C)C)C(C)C [Code 1-11, 1-diisopropylphosphorylundecane]
activity at 10 µM [1]: ≥ 88%
Activity relative to 1-8 in the MTT sebocyte assay ([2]; FIG. 4): 10,000 x
Sebocyte cell viability as % of controls (FIG. 4) ([2]; at 0.10 μM): strongly inhibited
Activity on TRPM8 [3]: low potency
Appearance after manual shaking (FIG. 7B) [4]: foaming
Levels / production of squalene (thin layer chromatography, FIG. 5) [5]: lowers
